For orientation: Kd means the concentration at which binding is half-saturated. Higher therefore signals lower affinity.

Data on one molecule can be found in paper doi:10.1101/2024.08.14.606984v2 (biorxiv, 2024).

The target in this experiment is GCN2 (Homo sapiens, UniProt Q9P2K8). Nature of the experiment: SPR, steady state. The experiment is classed as binding. (In general: Surface plasmon resonance follows binding to a sensor surface in real time, without labels.)
GCN2, sequence (Q9P2K8 whole entry): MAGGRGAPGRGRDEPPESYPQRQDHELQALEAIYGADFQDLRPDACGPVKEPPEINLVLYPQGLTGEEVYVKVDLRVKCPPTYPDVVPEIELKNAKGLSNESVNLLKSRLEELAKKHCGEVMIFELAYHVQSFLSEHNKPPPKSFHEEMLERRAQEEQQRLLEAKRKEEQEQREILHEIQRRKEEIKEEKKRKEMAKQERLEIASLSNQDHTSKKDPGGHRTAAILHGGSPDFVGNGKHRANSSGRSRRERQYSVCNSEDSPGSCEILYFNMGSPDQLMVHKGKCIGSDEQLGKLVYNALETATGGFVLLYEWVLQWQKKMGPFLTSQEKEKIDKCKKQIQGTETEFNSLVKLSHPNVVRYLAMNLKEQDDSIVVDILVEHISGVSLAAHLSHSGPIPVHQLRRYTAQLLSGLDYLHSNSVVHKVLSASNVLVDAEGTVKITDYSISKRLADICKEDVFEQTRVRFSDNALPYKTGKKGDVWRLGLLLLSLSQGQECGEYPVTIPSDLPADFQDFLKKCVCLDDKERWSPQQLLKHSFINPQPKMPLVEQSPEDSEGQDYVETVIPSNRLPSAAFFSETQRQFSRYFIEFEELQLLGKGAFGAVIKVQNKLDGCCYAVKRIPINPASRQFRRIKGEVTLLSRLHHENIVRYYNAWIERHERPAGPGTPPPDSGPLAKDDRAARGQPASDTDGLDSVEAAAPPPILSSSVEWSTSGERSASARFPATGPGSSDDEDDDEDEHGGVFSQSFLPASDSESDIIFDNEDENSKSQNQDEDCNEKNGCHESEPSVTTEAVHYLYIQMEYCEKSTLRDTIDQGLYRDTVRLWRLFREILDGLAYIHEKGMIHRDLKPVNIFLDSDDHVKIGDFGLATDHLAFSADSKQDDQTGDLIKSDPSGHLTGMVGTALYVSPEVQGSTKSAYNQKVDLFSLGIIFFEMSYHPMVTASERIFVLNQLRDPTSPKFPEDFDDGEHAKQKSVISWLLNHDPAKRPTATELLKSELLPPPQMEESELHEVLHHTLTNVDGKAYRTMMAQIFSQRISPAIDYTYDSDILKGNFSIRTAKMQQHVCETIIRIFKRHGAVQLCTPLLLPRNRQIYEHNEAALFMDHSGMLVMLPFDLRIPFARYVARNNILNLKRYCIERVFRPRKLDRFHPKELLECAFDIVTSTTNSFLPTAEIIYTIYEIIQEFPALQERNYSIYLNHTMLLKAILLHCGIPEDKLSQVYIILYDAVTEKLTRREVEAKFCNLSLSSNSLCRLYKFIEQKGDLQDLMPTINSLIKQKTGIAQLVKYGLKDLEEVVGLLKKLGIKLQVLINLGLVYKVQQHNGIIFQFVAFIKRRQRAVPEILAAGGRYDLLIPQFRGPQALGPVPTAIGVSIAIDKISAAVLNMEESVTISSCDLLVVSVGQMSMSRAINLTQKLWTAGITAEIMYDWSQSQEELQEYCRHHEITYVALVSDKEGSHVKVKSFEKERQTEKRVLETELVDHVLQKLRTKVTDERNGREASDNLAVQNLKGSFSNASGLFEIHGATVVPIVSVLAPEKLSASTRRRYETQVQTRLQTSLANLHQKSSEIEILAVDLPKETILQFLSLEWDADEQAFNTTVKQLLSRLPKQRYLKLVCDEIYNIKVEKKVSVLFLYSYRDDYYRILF

`CNc1ncc2cc(-c3cc(NC(=O)NCCC(C)(C)C)c(F)cc3C)c(C)nc2n1` [LY-3009120]: binding was characterised by a dissociation constant (Kd) of 43.1 ± 2.5 µM.
